The assay deals with T1, HIV-1 protease (Q7S mutant form) (Human immunodeficiency virus type 1 group M subtype B, UniProt P04585, Q495S).
T1 construct: made in house
The assay can be described thus: HIV-1 Protease RET assay. The format is biochemical. The procedure: Ki's for the inhibitors of HIV-1 protease were determined using a resonance energy transfer (RET) assay. […] This enzyme is first partially purified as inclusion bodies from cell lysate. It is then solublized in 8M urea and passed through a Q-Sepharose column (Pharmacia) for further purification. To refold this protein, samples containing Q7S is dialyzed into 50 mM sodium phosphate pH 7.0, 50 mM NaCl, 10 mM DTT, and 10% glycerol.
The commercially available peptide substrate (Molecular Probes Cat. # H-2930) RE(EDANS)SQNYPIVQK(DABCYL)R is used to assess activity and Ki's. This peptide is cleaved quantitatively by HIV-1 Pr at the Tyr-Pro bond. The EDANS fluorophore absorbs at 340 nm and emits at 490 nm. The reaction is carried out in a 96 well plate in a total volume of 100 µL and is run for 12 minutes at 37 C under steady-state conditions with 5 µM substrate and 2 nM active dimer enzyme concentration. The literature value Km for this substrate and enzyme is 103+/−8 µM (See Matayoshi, et al., “Novel Fluorogenic Substrates for Assaying Retroviral Proteases by Resonance Energy Transfer,” Science 247, 954 (1990)). The buffer for this reaction is 0.1M sodium acetate pH 4.8, 1M NaCl, 1 mM EDTA, 5 mM dithiothreitol, 10% dimethyl sulfoxide and 1 mg/ml bovine serum albumin. Inhibition curves are fit using the Morrison tight binding equation.

Where [1] appears, read: Ave. Ki (nM), RET assay, Q7S enzyme, Morrison tight binding fit.

Among the data in US7094909B2, “HIV protease inhibitors, compositions containing the same, their pharmaceutical uses and materials for their synthesis” (priority 2001, dated 2006) are Ki values, retold here.

The Ki is a dissociation constant, usually derived from enzyme kinetics or from competition with a known ligand. Higher therefore signals a looser hold on the target.

Compound `Cc1ccccc1CNC(=O)[C@@H]1N(C(=O)[C@@H](O)[C@H](Cc2ccccc2)NC(=O)CSc2c(C)cccc2C)CSC1(C)C` gave a Ki (Ki, unit inferred) of 422 nM. With `Cc1ccccc1CNC(=O)[C@H]1N(C(=O)[C@@H](O)[C@H](Cc2ccccc2)NC(=O)OC2CCC3CCCC3C2)CSC1(C)C` (stereo partly shown), the affinity (Ki, unit inferred), expressed as Ki, was 148 nM.

Under “Ki, unit inferred”, `CCCNC(=O)[C@@H]1CC(F)(F)CN1C(=O)[C@@H](O)[C@H](Cc1ccccc1)NC(=O)O[C@H]1CCOC1` gave an inhibition constant (Ki) of 42 nM. Same read-out and setting: with `CCCNC(=O)[C@@H]1CC(F)(F)CN1C(=O)[C@@H](O)[C@H](Cc1ccccc1)NC(=O)c1ccc(C)c(O)c1C` the figure was 108 nM; with `CCNC(=O)C1c2ccccc2CN1C(=O)[C@@H](O)[C@H](Cc1ccccc1)NC(=O)c1c(C)noc1C` (stereo partly shown), 84 nM; with `Cc1ccccc1CNC(=O)[C@H]1N(C(=O)[C@@H](O)[C@H](Cc2ccccc2)NC(=O)CCN)CSC1(C)C`, 156 nM.

Take `Cc1ccccc1CNC(=O)[C@H]1N(C(=O)[C@@H](O)[C@H](Cc2ccccc2)NC(=O)CCCN)CSC1(C)C`: where the note is “Ki, unit inferred”, the affinity corresponds to a Ki of 51 nM. Compound `Cc1ccccc1CNC(=O)[C@H]1N(C(=O)[C@@H](O)[C@H](Cc2ccccc2)NC(=O)CN)CSC1(C)C` returned an inhibition constant Ki (Ki, unit inferred) of 110 nM. On the same count and under the same terms, the value for `Cc1ccccc1CNC(=O)[C@H]1N(C(=O)[C@@H](O)[C@H](Cc2ccccc2)NC(=O)C(C)(C)CN)CSC1(C)C` was 18.7 nM; that for `Cc1ccccc1CNC(=O)[C@H]1N(C(=O)[C@@H](O)[C@H](Cc2ccccc2)NC(=O)C(C)CN)CSC1(C)C` (stereo partly shown) was 158 nM. With `Cc1ccc(CNC(=O)NC(Cc2ccccc2)C(O)C(=O)N2CSC(C)(C)[C@H]2C(=O)NCc2ccccc2C)c(C)c1` (stereo in doubt) [Example B69, 3-{3-[3-(2,4-Dimethyl-benzyl)-ureido]-2-hydroxy-4-phenyl-butyryl}-5,5-dimethyl-thiazolidine-4-carboxylic acid 2-methyl-benzylamide], the inhibition constant Ki under setting [1] amounted to 7.7 nM. The same measure, in the same setting: the value for `COc1ccccc1CNC(=O)NC(Cc1ccccc1)C(O)C(=O)N1CSC(C)(C)[C@H]1C(=O)NCc1ccccc1C` (stereo in doubt) [Example B70, 3-{2-Hydroxy-3-[3-(2-methoxy-benzyl)-ureido]-4-phenyl-butyryl}-5,5-dimethyl-thiazolidine-4-carboxylic acid 2-methyl-benzylamide] was 21 nM; that for `Cc1ccccc1CNC(=O)[C@H]1N(C(=O)C(O)C(Cc2ccccc2)NC(=O)NCc2ccc(F)cc2F)CSC1(C)C` (stereo in doubt) [Example B71, 3-{3-[3-(2,4-Difluoro-benzyl)-ureido]-2-hydroxy-4-phenyl-butyryl}-5,5-dimethyl-thiazolidine-4-carboxylic acid 2-methyl-benzylamide] was 6.4 nM. The same measure, in the same setting: the value for `Cc1ccccc1CNC(=O)[C@H]1N(C(=O)C(O)C(Cc2ccccc2)NC(=O)NCc2ccccc2Br)CSC1(C)C` (stereo in doubt) [Example B72, 3-{3-[3-(2-Bromo-benzyl)ureido]-2-hydroxy-4-phenyl-butyryl}-5,5-dimethyl-thiazolidine-4-carboxylic acid 2-methyl-benzylamide] was 6.6 nM; that for `Cc1ccccc1CNC(=O)[C@H]1N(C(=O)C(O)C(Cc2ccccc2)NC(=O)NCc2ccc(Br)cc2)CSC1(C)C` (stereo in doubt) [Example B73, 3-{3-[3-(4Bromo-benzyl)-ureido]-2-hydroxy-4phenyl-butyryl}-5,5-dimethyl-thiazolidine-4-carboxylic acid 2-methyl-benzylamide] was 13 nM. The same measure, in the same setting: the value for `Cc1c(O)cccc1C(=O)N[C@@H](Cc1ccccc1)[C@H](O)C(=O)N1CSC(C)(C)[C@H]1C(=O)NCc1nc2ccccc2[nH]1` [Example A60, (R)-3-[(2S,3S)-2-Hydroxy-3-(3-hydroxy-2-methyl-benzoylamino)-4-phenyl-butyryl]-5,5-dimethyl-thiazolidine-4-carboxylic acid (1H-benzoimidazol-2-ylmethyl)-amide] was 66.6 nM.
